Assay results reported in PMC6934184, “Selective DNA-PKcs inhibition extends the therapeutic index of localized radiotherapy and chemotherapy” (The Journal of Clinical Investigation, 2019).

Target: T1, FGFR3 G697C (Homo sapiens, UniProt P22607, G697C)
T1 construct: purchased Thermo Fisher Scientific (Life Technologies) SelectScreen
Experiment: SelectScreen LanthaScreen
Format: binding
Conditions: read-out: % displacement
Summary of the method: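 SelectScreen broad panel; activity (Z'LYTE, Adapta) plus binding formats. ATP: Km app for CSF1R Z'LYTE; 10 for CAMK1 Adapta. Readout = % per kinase.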

T1 sequence (P22607 23-806 G697C): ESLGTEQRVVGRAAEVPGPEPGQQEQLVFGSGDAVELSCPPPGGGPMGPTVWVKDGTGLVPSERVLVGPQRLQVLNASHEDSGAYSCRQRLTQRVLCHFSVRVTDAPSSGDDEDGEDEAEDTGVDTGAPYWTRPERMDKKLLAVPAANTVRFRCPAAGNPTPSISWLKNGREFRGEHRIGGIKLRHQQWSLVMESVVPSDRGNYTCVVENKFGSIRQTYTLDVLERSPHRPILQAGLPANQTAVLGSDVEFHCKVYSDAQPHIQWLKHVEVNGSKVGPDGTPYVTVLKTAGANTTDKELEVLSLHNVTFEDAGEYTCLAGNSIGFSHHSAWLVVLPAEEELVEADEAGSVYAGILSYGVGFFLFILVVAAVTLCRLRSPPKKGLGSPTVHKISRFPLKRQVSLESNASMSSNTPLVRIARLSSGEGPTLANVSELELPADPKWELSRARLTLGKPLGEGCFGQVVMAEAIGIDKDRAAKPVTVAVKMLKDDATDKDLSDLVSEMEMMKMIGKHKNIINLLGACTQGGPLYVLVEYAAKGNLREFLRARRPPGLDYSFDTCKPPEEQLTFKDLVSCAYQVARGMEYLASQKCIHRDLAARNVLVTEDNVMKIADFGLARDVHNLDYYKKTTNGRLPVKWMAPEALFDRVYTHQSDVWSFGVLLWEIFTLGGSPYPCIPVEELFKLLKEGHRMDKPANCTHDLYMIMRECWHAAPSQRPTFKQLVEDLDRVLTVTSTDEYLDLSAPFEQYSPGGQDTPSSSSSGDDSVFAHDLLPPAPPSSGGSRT

CN(C(=O)CN1CCOCC1)c1ccc2sc3c(-c4cccc5c(=O)cc(N6CC7CCC(C6)O7)oc45)cccc3c2c1 [NU5455]
inhibition at 1 µM: 3.1%
